This note sets out measurements from US20250215029A1 (Recludix Pharma, Inc., priority 2022, published 2025).

Molecules are shown by their SMILES.

In this assay the target is T1, pY705-STAT3 in PBMC (Homo sapiens, UniProt P40763).
T1 construct: Cryopreserved Peripheral Blood Mononuclear Cells (PBMC) are from AllCells; host or cells: cryopreserved PBMC
T1 sequence (P40763 whole entry): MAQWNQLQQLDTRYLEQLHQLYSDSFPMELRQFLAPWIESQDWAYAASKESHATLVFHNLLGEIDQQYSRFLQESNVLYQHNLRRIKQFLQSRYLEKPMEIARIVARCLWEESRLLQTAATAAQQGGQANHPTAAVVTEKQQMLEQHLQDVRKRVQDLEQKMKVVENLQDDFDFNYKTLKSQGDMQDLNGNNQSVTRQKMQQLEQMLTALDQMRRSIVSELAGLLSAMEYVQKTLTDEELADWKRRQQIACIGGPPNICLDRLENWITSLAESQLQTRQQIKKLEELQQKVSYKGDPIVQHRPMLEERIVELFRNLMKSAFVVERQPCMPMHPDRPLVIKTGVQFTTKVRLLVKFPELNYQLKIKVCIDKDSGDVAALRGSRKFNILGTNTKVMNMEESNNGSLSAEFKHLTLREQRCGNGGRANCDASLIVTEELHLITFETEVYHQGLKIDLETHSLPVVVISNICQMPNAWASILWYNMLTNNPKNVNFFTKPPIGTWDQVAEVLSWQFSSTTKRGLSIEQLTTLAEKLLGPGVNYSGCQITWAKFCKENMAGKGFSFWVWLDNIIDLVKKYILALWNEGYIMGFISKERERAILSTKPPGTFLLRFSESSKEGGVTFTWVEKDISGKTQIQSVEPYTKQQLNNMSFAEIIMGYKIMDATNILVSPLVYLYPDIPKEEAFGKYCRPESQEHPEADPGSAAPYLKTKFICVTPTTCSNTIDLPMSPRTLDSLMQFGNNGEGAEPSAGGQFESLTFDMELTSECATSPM
Kind of assay: MSD-pSTAT-PBMC Assay (pSTAT3, IL-6 stimulated). The format is cell-based. To be noted: PBMC, compound 3 hrs, then 10 ng/mL IL-6 for 10 min; Table 115; read-out: STAT3. An excerpt: Cryopreserved Peripheral Blood Mononuclear Cells (PBMC) are from AllCells. Recombinant Human IL-4 and IL-6 are from Peprotech. Mouse monoclonal anti-STAT3 antibody, rabbit monoclonal anti-pY705-STAT3 antibody, rabbit monoclonal Anti-pY641-STAT6 antibody, and lysis buffer are from Cell Signaling Technology (CST). Mouse monoclonal anti-STAT6 antibody is from BioLegend. Assay plates, blocker, and anti-rabbit secondary antibody are from Meso Scale Discovery (MSD).
Cyropreserved PBMCs were thawed out and allowed to recover overnight in IMDM+10% heat-inactivated FBS prior to plating 50,000 (STAT3) or 25,000 (STAT6) cells per well in 96-well U-bottom tissue culture plates. Cells were treated with compound for 3 hrs, then stimulated with 10 ng/mL IL-6 (STAT3) or 1 ng/mL IL-4 (STAT6) for 10 min. Cells were then spun down and washed with ice-cold PBS prior to lysing the cell pellet with 1× lysis buffer (CST) with 1× HALT protease and phosphatase inhibitor cocktail (Thermo). Lysates were transferred to and incubated overnight at 4° C. with shaking in QuickPlex 96-well high bind assay plates (MSD) pre-coated overnight with 30 μL per well of 0.6 μg/mL mouse monoclonal anti-STAT3 antibody (STAT3) or 2 μg/mL mouse monoclonal anti-STAT6 antibody (STAT6) in 1× PBS, and pre-blocked for 1 hour with 3% Blocker-A (MSD). Captured protein in the assay plates were then washed and probed with 25 μL per well of […] rabbit monoclonal anti-pY705-STAT3 antibody (STAT3) or 0.18 μg/ml rabbit monoclonal Anti-pY641-STAT6 antibody (STAT6) in 1% Blocker-A for 1 hour at room temperature with shaking, then washed and probed with 25 ul per well of 1 ug/ml Sulfo-TAG Labeled Goat Anti-Rabbit Antibody (MSD) in 1% Blocker-A for 1 hour at room temperature with shaking. Assay plates were then washed and 150 μL of 1× Read Buffer-T (MSD) was added to each well prior to reading on an SQ120 MSD Plate Reader. Assay signal from each sample was subtracted by the signal from unstimulated control wells and normalized to DMSO control wells. IC50 values were calculated using Graph Pad Prism Dose-Response Nonlinear Regression with variable slope. For both pSTAT3 and pSTAT6 A=≤100 nM; B 100-1000 nM; C=>1000-3000 nM; D=>3 μM; and NT=Not Tested.
For `Cn1cnnc1C1CN(C(=O)[C@@H]2CC[C@@H]3CCC[C@H](NC(=O)c4cc5cc(C(F)(F)P(=O)(OCCSC(=O)C(C)(C)C)OCCSC(=O)C(C)(C)C)ccc5s4)C(=O)N32)C1` [Compound 967, S,S′-((((difluoro(2-(((3S,6S,9aS)-3-(3-(4-methyl-4H-1,2,4-triazol-3-yl)azetidine-1-carbonyl)-5-oxooctahydro-1H-pyrrolo[1,2-a]azepin-6-yl)carbamoyl)benzo [b]thiophen-5-yl)methyl)phosphoryl)bis(oxy))bis(ethane-2,1-diyl)) bis(2,2-dimethyl-propanethioate)], the IC50 was under 100 nM.
As for `CCOC(=O)[C@H](CC)NP(=O)(Cc1ccc2sc(C(=O)N[C@H]3CCC[C@H]4CC[C@@H](C(=O)N5CC(c6cccnc6)C5)N4C3=O)cc2c1)Oc1ccccc1` (stereo partly drawn) [Compound 944, ethyl (2S)-2-((((2-(((3S,6S,9aS)-5-oxo-3-(3-(pyridin-3-yl)azetidine-1-carbonyl)octahydro-1H-pyrrolo[1,2-a]azepin-6-yl)carbamoyl)benzo [b]thiophen-5-yl)methyl)(phenoxy)phosphoryl)amino) butanoate], the figure is 100 to 1000 nM.
Take `CCCOC(=O)[C@H](C)NP(=O)(Oc1ccccc1)[C@@H](F)c1ccc2sc(C(=O)N[C@H]3CCC[C@H]4CC[C@@H](C(=O)N5CC(c6cncc(F)c6NC)C5)N4C3=O)cc2c1` (stereo partly drawn) [Compound 1026, propyl (((R)-fluoro(2-(((3S,6S,9aS)-3-(3-(5-fluoro-4-(methylamino)pyridin-3-yl)azetidine-1-carbonyl)-5-oxooctahydro-1H-pyrrolo[1,2-a]azepin-6-yl)carbamoyl)benzo [b]thiophen-5-yl)methyl)(phenoxy)phosphoryl)-L-alaninate]: the IC50 was under 100 nM.
As for `CCCOC(=O)[C@H](C)NP(=O)(Cc1ccc2sc(C(=O)N[C@H]3CCC[C@H]4CC[C@@H](C(=O)N5CC(c6cnc(OC)cc6F)C5)N4C3=O)cc2c1)Oc1ccccc1` (stereo partly drawn) [Compound 271, propyl (((2-(((3S,6S,9aS)-3-(3-(4-fluoro-6-methoxypyridin-3-yl)azetidine-1-carbonyl)-5-oxooctahydro-1H-pyrrolo[1,2-a]azepin-6-yl)carbamoyl)benzo [b]thiophen-5-yl)methyl)(phenoxy)phosphoryl)-L-alaninate], the figure is 100 to 1000 nM; as for `CCCOC(=O)[C@H](C)NP(=O)(Oc1ccccc1)[C@@H](F)c1ccc2sc(C(=O)N[C@H]3CCC[C@H]4CC[C@@H](C(=O)N5CC(c6cncnc6N6CC[C@H]6COC)C5)N4C3=O)cc2c1` (stereo partly drawn) [Compound 1071, propyl (((R)-fluoro(2-(((3S,6S,9aS)-3-(3-(4-((S)-2-(methoxymethyl)azetidin-1-yl)pyrimidin-5-yl)azetidine-1-carbonyl)-5-oxooctahydro-1H-pyrrolo[1,2-a]azepin-6-yl)carbamoyl)benzo [b]thiophen-5-yl)methyl)(phenoxy)phosphoryl)-L-alaninate], under 100 nM.
As for `CCCOC(=O)[C@H](C)NP(=O)(Oc1ccccc1)C(F)c1ccc2sc(C(=O)N[C@H]3CCCC[C@H]4CC[C@@H](C(=O)N[C@H]5CN(C(N)=O)C[C@@H]5F)N4C3=O)cc2c1` (stereo partly drawn) [Compound 958, propyl (((2-(((3S,6S,10aS)-3-(((3S,4S)-1-carbamoyl-4-fluoropyrrolidin-3-yl)carbamoyl)-5-oxodeca-hydropyrrolo [1,2-a]azocin-6-yl)carbamoyl)benzo [b]thiophen-5-yl)fluoromethyl) (phenoxy)phosphoryl)-L-alaninate], the figure is 1000 to 3000 nM; as for `CCCC(=O)SCCOP(=O)(OCCSC(=O)CCC)C(F)(F)c1ccc2sc(C(=O)N[C@H]3CCC[C@H]4CC[C@@H](C(=O)N5CC(c6nncn6C)C5)N4C3=O)cc2c1` [Compound 964, S,S′-((((difluoro(2-(((3S,6S,9aS)-3-(3-(4-methyl-4H-1,2,4-triazol-3-yl)azetidine-1-carbonyl)-5-oxooctahydro-1H-pyrrolo[1,2-a]azepin-6-yl)carbamoyl)benzo [b]thiophen-5-yl)methyl)phosphoryl)bis(oxy))bis(ethane-2,1-diyl)) dibutanethioate], 100 to 1000 nM; as for `CCCOC(=O)[C@H](C)N[P@@](=O)(Oc1ccccc1)[C@H](F)c1ccc2sc(C(=O)N[C@H]3CCC[C@H]4CC[C@@H](C(=O)N5CC(c6cccnc6)C5)N4C3=O)cc2c1` [Compound 464], under 100 nM.
As for `CCCOC(=O)[C@H](C)NP(=O)(Oc1ccccc1)[C@H](F)c1ccc2sc(C(=O)N[C@H]3CCC[C@H]4CC[C@@H](C(=O)N5CC(c6cnccc6N6CCOCC6)C5)N4C3=O)cc2c1` (stereo partly drawn) [Compound 1065, propyl (((S)-fluoro(2-(((3S,6S,9aS)-3-(3-(4-morpholinopyridin-3-yl)azetidine-1-carbonyl)-5-oxooctahydro-1H-pyrrolo[1,2-a]azepin-6-yl)carbamoyl)benzo [b]thiophen-5-yl)methyl)(phenoxy)phosphoryl)-L-alaninate], the figure is under 100 nM; as for `CCCOC(=O)[C@H](C)NP(=O)(Oc1ccccc1)[C@H](F)c1ccc2sc(C(=O)N[C@H]3CCC[C@H]4CC[C@@H](C(=O)N5CC(c6cnccc6N6CCC6)C5)N4C3=O)cc2c1` (stereo partly drawn) [Compound 1024, propyl (((S)-(2-(((3S,6S,9aS)-3-(3-(4-(azetidin-1-yl)pyridin-3-yl)azetidine-1-carbonyl)-5-oxooctahydro-1H-pyrrolo[1,2-a]azepin-6-yl)carbamoyl)benzo [b]thiophen-5-yl)fluoromethyl) (phenoxy)phosphoryl)-L-alaninate], 100 to 1000 nM; as for `CCC(CC)COC(=O)[C@H](C)NP(=O)(Cc1ccc2sc(C(=O)N[C@H]3CCC[C@H]4CC[C@@H](C(=O)N5CC(c6cccnc6)C5)N4C3=O)cc2c1)Oc1ccccc1` (stereo partly drawn) [Compound 258, 2-ethylbutyl (((2-(((3S,6S,9aS)-5-oxo-3-(3-(pyridin-3-yl)azetidine-1-carbonyl)octahydro-1H-pyrrolo[1,2-a]azepin-6-yl)carbamoyl)benzo [b]thiophen-5-yl)methyl)(phenoxy)phosphoryl)-L-alaninate], under 100 nM.
`CCCOC(=O)[C@H](C)N[P@@](=O)(Oc1ccccc1)[C@@H](F)c1ccc2sc(C(=O)N[C@H]3CCC[C@H]4CC[C@@H](C(=O)N5CC(c6cnccc6C)C5)N4C3=O)cc2c1` (single isomer, unassigned) [Compound 1027]: the IC50 is under 100 nM.
In the case of `CCCOC(=O)[C@H](C)NP(=O)(Oc1ccccc1)C(F)c1ccc2sc(C(=O)N[C@H]3CCC[C@H]4CC[C@@H](C(=O)N5CC(c6cnccc6C#N)C5)N4C3=O)cc2c1` (stereo partly drawn) [Compound 273, propyl (((2-(((3S,6S,9aS)-3-(3-(4-cyanopyridin-3-yl)azetidine-1-carbonyl)-5-oxooctahydro-1H-pyrrolo[1,2-a]azepin-6-yl)carbamoyl)benzo [b]thiophen-5-yl)fluoromethyl) (phenoxy)phosphoryl)-L-alaninate], the IC50 lay within 100 to 1000 nM.
As for `CCCOC(=O)[C@H](C)N[P@](=O)(Oc1ccccc1)[C@@H](F)c1ccc2sc(C(=O)N[C@H]3CCC[C@H]4CC[C@@H](C(=O)N5CC(c6cnccc6N6CCOCC6)C5)N4C3=O)cc2c1` (single isomer, unassigned) [Compound 1046], the IC50 fell in the range of 100 to 1000 nM.
As for `CCCOC(=O)[C@H](C)NP(=O)(Oc1ccccc1)C(F)c1ccc2sc(C(=O)N[C@H]3CCC[C@H]4CC[C@@H](C(=O)N5CC(c6cncnc6OC)C5)N4C3=O)cc2c1` (stereo partly drawn) [Compound 1042, propyl ((fluoro(2-(((3S,6S,9aS)-3-(3-(4-methoxypyrimidin-5-yl)azetidine-1-carbonyl)-5-oxooctahydro-1H-pyrrolo[1,2-a]azepin-6-yl)carbamoyl)benzo [b]thiophen-5-yl)methyl)(phenoxy)phosphoryl)-L-alaninate], the figure is 100 to 1000 nM; as for `CCCCOC(=O)[C@H](C)N(C)P(=O)(Oc1ccccc1)C(F)(F)c1ccc2sc(C(=O)N[C@H]3CCC[C@H]4CC[C@@H](C(=O)N5CC(c6cccnc6)C5)N4C3=O)cc2c1` (stereo partly drawn) [Compound 285, butyl N-((difluoro(2-(((3S,6S,9aS)-5-oxo-3-(3-(pyridin-3-yl)azetidine-1-carbonyl)octahydro-1H-pyrrolo[1,2-a]azepin-6-yl)carbamoyl)benzo [b]thiophen-5-yl)methyl)(phenoxy)phosphoryl)-N-methyl-L-alaninate], over 3000 nM.
